Results taken from patent US20110269797A1, “ANLN PROTEIN AS AN ENDOCRINE TREATMENT PREDICTIVE FACTOR” (ATLAS ANTIBODIES AB, priority 2008, published 2011).
Entries after “also recorded” stand apart in the source; their conditions may differ.

Tests used:
ERα+/PR− tumors = settings: follow-up period of 6 years, Dowsett 2005; cited from earlier work
[1] = system: stage II primary breast carcinoma; assay: Randomized premenopausal tamoxifen trial, Cohort II TMA, Kaplan-Meier survival analysis by ANLN protein level; assay type: in vivo, human
Source text: Median age at diagnosis was 45 (25-57) years. Median follow-up was 13.9 years and less than 2% of the patients had received adjuvant chemotherapy. The study design is described in detail elsewhere (Rydén L et al, Eur J Cancer, 2005, 41(2): 256-64). Ethical permission was obtained from the Local Ethics Committees at Lund and Linkoping Universities.
All cases had been histopathologically re-evaluated on hematoxylin and eosin stained slides. TMA:s were constructed by sampling 2×0.6 mm cores per case from areas representative of invasive cancer, using an automated arraying device (ATA-27, Beecher Inc, Sun Prairie, Wis., USA). The TMA:s were prepared and automated IHC was performed as described in section 3 above, using the ANLN protein antibody prepared as described in section 2 above. IHC staining of ER had been performed previously. In line with current clinical praxis, a cut-off at 10% positive nuclei was used to define hormone receptor positivity.
For statistical analyses, categories were based on nuclear fraction (nf). nf was evaluated as in Examples, section 4, above. As with “the fraction of stained cells” in Examples, Section 3 above, nf was classified as ≦1%, 2-25%, 26-75% or >75%. For this purpose the 2-25% group were split into two groups namely 2-10% and >10-25%. Based on the survival trends for all different strata, dichotomized variables were constructed for further statistical analyses. […] Subsequently, groups denoted “high” or “low” were established based on ANLN protein expression. In a first analysis, the “high” group represented a nuclear fraction (nf) of >1%, and the “low” group a nuclear fraction≦1%. In a second analysis, the “high” group represented a nuclear fraction (nf) of >10%, and the “low” group a nuclear fraction≦10%.
In a third analysis, the “high” group represented a nuclear fraction (nf) of 26%, and the “low” group a nuclear fraction≦25%. This classification of samples was used for OS, RFS and BOSS analysis according to the Kaplan-Meier estimator, and the log-rank test was used to compare survival in different strata. All statistical tests were two-sided, and p-values of <[…] were considered significant. All calculations were made with the statistical package SPSS 16.0 (SPSS Inc. Ill., USA).

primary breast cancer = assay: Consecutive cohort TMA (Cohort I), survival analysis of tamoxifen-treated ER+ subjects by ANLN protein level; assay type: in vivo, human; settings: ER+ subjects given adjuvant tamoxifen; cut off nf 1%; FIG. 6, p=0.018
Source text: Archival formalin-fixed paraffin-embedded tissue from 498 patients diagnosed with primary breast cancer between 1988 and 1992 was collected from the Department of Pathology, Malmo University Hospital, Sweden. The median age of patients was 65 (range 27-96) years and median follow-up time was 128 months (0-207). Information regarding the date of death was obtained from the regional cause-of-death registries for all patients. Ethical permission was obtained from the Local Ethics Committee of Lund University.
All 498 cases of breast cancer were histopathologically reevaluated on slides stained with hematoxylin and eosin. TMA:s were constructed by sampling 2×1.0 mm cores per case from areas representative of invasive cancer, using a manual arraying device (ATA-27, Beecher Inc, Sun Prairie, Wis., USA). The TMA:s were prepared and automated IHC was performed as described in section 3 above, using the ANLN protein antibody prepared as described in section 2 above. IHC staining of ER had been performed previously. […]
For statistical analyses, the nucleic fraction (nf) level was evaluated, in line with what is described in Examples, Section 3 above. The nuclear fraction was subjectively evaluated in accordance to standards used in clinical histo-pathological diagnostics and outcome was classified as ≦1%, 2-25%, 26-75% or >75%. […]

breast cancer = settings: cited from earlier work

## CC(C)(C#N)c1cc(Cn2cncn2)cc(C(C)(C)C#N)c1 [anastrozole]
ERα+/PR− tumors
  recurrence rate compared to patients treated with tamoxifen: halved

## CC/C(=C(\c1ccccc1)c1ccc(OCCN(C)C)cc1)c1ccccc1 [tamoxifen]
[1]; ER positive ANLN protein low patients (nf≦10%), TAM vs ctrl, FIGS. 14a, 15a, 16a
  benefit from tamoxifen treatment (RFS, BCSS, OS): particularly beneficial; also recorded: at least slightly, benefit
[1]; ER positive patients with high ANLN protein level (nf>10%), TAM vs ctrl, FIGS. 14b, 15b, 16b
  impact of tamoxifen treatment on survival (RFS, BCSS, OS): limited or no impact
[1]; adjuvant tamoxifen 2 years, cut off 1% and 10%, FIG. 8
  RFS of ANLN protein low versus ANLN protein high patients treated with tamoxifen: significantly better
[1]; ductal carcinoma subgroup, ANLN protein low (nf≦10%), TAM vs ctrl, FIG. 20a
  effect of tamoxifen treatment on RFS: effective
[1]; ductal carcinoma subgroup, high ANLN protein level (nf>10%), TAM vs ctrl, FIG. 20b
  impact of tamoxifen treatment on RFS outcome: no positive impact on the outcome
[1]; subjects with high ANLN protein level (nf>10%), TAM 2 years vs ctrl, FIG. 11
  impact of tamoxifen treatment on RFS outcome: no positive impact on the outcome
Primary breast cancer
  probability of recurrence free survival, ANLN protein low versus high subjects treated with tamoxifen: significantly better
Breast cancer; Riggins 2007, Gruvberger-Saal 2007
  ERα positive patients that do not respond to tamoxifen treatment: 30-40%
Breast cancer; five years adjuvant treatment after primary surgery, ER positive tumors, irrespective of lymph node status, EBCTCG 1998
  breast cancer mortality: reduces
